This note sets out measurements from US20100324017A1, “ACYLGUANIDINE DERIVATIVE” (priority 2007, published 2010).

Some results are limits rather than exact numbers.

One test deals with T1, human 5-HT5A receptor (Homo sapiens, UniProt P47898).
T1 construct: expressed in transfected cells; membrane preparation
The test can be described thus: Test of human 5-HT5A receptor binding inhibition ([3H]5-CT, HEK293 cell membrane). The following applies: [3H]5-CT binding, membrane of HEK293 cell expressing human 5-HT5A receptor. As for the experimental part:
An ORF of a human 5-HT5A receptor (Genbank AF498985) was cloned from a human hippocampal cDNA library, and then inserted into a pCR2.1 vector (Invitrogen), and Escherichia coli having the plasmid was mass cultured. Next, the human 5-HT5A receptor full-length cDNA sequence was analyzed, recombined into a pCDNA3.1 vector (Invitrogen) as an expression vector, and mass cultured. A human embryonic kidney-induced cell HEK293 cell (ATCC) was seeded, and the resulting expression plasmid (1 μg) above was added thereto together with LIPOFECTAMINE 2000 (Invitrogen; 2 μl), a gene was introduced into the HEK293 cell, and then Geneticin (G418 sulfate 500 μg/ml; Kanto Chemical Co., Inc.) was used as a drug-resistant marker to screen the expressing cell. Thus prepared gene-expressing recombinant cell was cultured in a D-MEM, 10% FCS, 1% Pc./Sm., 500 μg/ml G418 culture medium for 3 days. This experimental operation was conducted in accordance with a gene operation experiment manual of a known method (Sambrook, J. et al, Molecular Cloning-A Laboratory Manual“, Cold Spring Harabor Laboratory, NY, 1989), etc., an instruction appended in a reagent or the like.
(1) Preparation of a Membrane from an HEK293 Cell Forcibly Expressing a Human 5-HT5A Receptor
An HEK293 cell forcibly expressing a human 5-HT5A receptor was cultured in an F500 plate, and scraped for collection using a scraper. After centrifugation, the precipitates were collected and an incubation buffer (50 mM Tris (HCl) PH 7.4, 10 mM Mg504, 0.5 mM EDTA) was added thereto. After homogenization, it was further centrifuged, an incubation buffer was added to the precipitate, and the mixture was well suspended. These operations were repeatedly conducted, the protein concentration was then measured, and the preparation of a membrane was completed.
(2) Experiment on Human 5-HT5A Receptor Binding Inhibition
The compound to be tested (0.3 to 300 nM) and a 100 μM 5-CT solution in DMSO were added to a 96-well plate at 2 μl/well. The number of the wells to be measured under the same condition in one experiment was set at 2, and an average value thereof was used. It was suspended in an incubation buffer, and a HEK293 cell membrane forcibly expressing a human 5-HT5A receptor that had been prepared at 200 μg/ml was added thereto at 100 μl/well. The mixture was incubated at room temperature for 15 minutes, and a [^3H]5-CT solution (2 nM [^3H]5-CT, an incubation buffer) was then added thereto at 100 μl/well.
Separate from this, 100 μl of the solution was dispersed to a liquid scintillation vial, 2 ml of Aquasol II (registered trademark) was added thereto, followed by stirring, and the radioactivity was then measured with a liquid scintillation counter. The solution was incubated at 37° C. for 60 minutes. The reaction liquid was sucked to a 96-well GF/C filter plate that had been preliminarily treated with 0.2% polyethyleneimine, and washed six times with an ice-cooled 50 mM Tris (pH 7.5) buffer. The GF/C filter plate was dried.
MicroscintTMPS (registered trademark) was added thereto at 40 μl/well. The radioactivity remaining on the GF/C filter plate was measured in a top counter.
For the inhibitory activity for the binding of the [^3H]5-CT by the compound to be tested in each experiment, IC50 value was calculated by taking the radioactivity when only DMSO was added as 0% inhibition, and the radioactivity when 1 μM 5-CT was added as 100% inhibition. Apart from this, a Ki value was calculated from the Kd value of the [^3H]5-CT that had been determined by Scatchard analysis.
Ki=IC50 (1+Concentration of the ligands added/Kd (4.95 nM))

Test [1] relates to MK-801-induced overactivity. The test can be described thus: MK-801-induced overactivity in mice, kinetic momentum by infrared sensor. The class given is in vivo. The conditions noted are these: mouse, oral, MK-801 0.3 mg/kg i.p. As for the experimental part:
(§1) Evaluation of Various Drugs Relative to a Drug for Increasing the Kinetic Momentum of Mice (Methane Phetamine, MK-801) (Method for Measuring a Kinetic Momentum by Discharge of an Infrared Ray)
(§2) The effect of improving the positive symptoms and the negative symptoms of schizophrenia by the compound (I) was evaluated by measuring the kinetic momentum that had been […] with administration of the compound in a model causing the symptoms by methane phetamine (which is hereinafter simply referred to as MAP) and MK-801.
(§3) Species: Male ICR mouse/number of animals (number of animals per group): 8 to 12 animals per group
(§4) The animal was left in a laboratory for 1 hour or longer to be acclimated to the environment, and the animal was taken from the feeding cage, orally administered with a compound to be tested, and then returned to the feeding cage. After 30 minutes, it was put into a cage for measurement, and the kinetic momentum of just the compound to be tested was measured. Further, after 30 minutes, the animal was taken out, and intraperitoneally administered with a drug for increasing kinetic momentum (MAP; 1 mg/kg or MK-801; 0.3 mg/kg, all dissolved in physiological saline), and its kinetic momentum was measured for a certain time (60 minutes) using a device for measuring the kinetic momentum by means of an infrared ray sensor (CompACT AMS, Muromachi Kikai Co., Ltd.). Also, the test was carried out under non-fasting.
(§5) The 60 minutes of measurements was classified into three groups: a first half 30 minutes, a second half 30 minutes, and a total 60 minutes. For a normal mouse (a mouse administered with physiological saline) and a mouse administered with the drug for increasing kinetic momentum, a Student's T test was used for evaluation in each interval. For the group administered with the compound to be tested, a solvent (vehicle) group and a Dunnett's T test were carried out and evaluated. For the evaluation, in case where there was a significant (P<0.05) difference for the total 60 minutes, it was considered to be effective.

The test system of test [2] is scopolamine-induced spontaneous alternation behavior disorder. The test can be described thus: Scopolamine-induced spontaneous alternation behavior disorder in mice (Y-maze). The conditions noted are these: mouse, scopolamine 0.5 mg/kg i.p. The class given is in vivo. As for the experimental part:
An Improvement Effect for Scopolamine-Induced or MK-801-Induced Spontaneous Alternation Behavior in Mice
An improvement effect of the compound (I) for cognitive impairment was evaluated by the above-described well-known test method as a model of a short-term learning disorder.
Species: Male ddY mice/number of animals (number of animals per group): 6 to 10 animals per group
A mouse was introduced into the laboratory 1 hour before starting the test. The mouse was placed at one end of an arm in a Y-maze having equal lengths of arms in three directions, and was able freely explored for 8 minutes with the number of the entries into the arms were counted. Furthermore, a spontaneous alternation behavior was defined as consecutive entries into each of the three arms, and an alternation rate was defined as the percentage of the number of time of this behavior relative to the total number of the entries, and calculated by the following equation.
Alternation rate (%)=(number of spontaneous alternation behaviors/total number of entries−2)×100.
The compound to be tested was orally administered 50 minutes before the initiation of the test, and 30 minutes later, 0.5 mg/kg of scopolamine or 0.15 mg/kg of MK-801 (in the normal group, physiological saline) was intraperitoneally administered. Furthermore, for the normal group (the group administered with physiological saline) and the control group (the group administered with 0.5 mg/kg scopolamine or 0.15 mg/kg MK-801), a solvent (vehicle) was orally administered when the compound to be tested was administered. For the normal group, physiological saline was intraperitoneally administered when scopolamine was administered.
The alternation rate (%) is expressed as an average value in each group (mean±SE). In regard to the alternation rate (%), in the case where a significant difference between the normal group and the control group (Student's T test) was found, it was considered that there was an establishment of learning disorder by the administration of scopolamine or MK-801. By carrying out the Dunnett evaluation for the group administered with the compound to be tested relative to the control group, the presence or absence of the learning disorder action of the compound to be tested was determined. In each evaluation, it was considered that there was a tendency at p<0.10, and there was a significant difference at p<0.05.

For a further test, the system named is MAP-induced overactivity. The experiment in a line: MAP (methane phetamine)-induced overactivity in mice, kinetic momentum by infrared sensor. The class given is in vivo. The following applies: mouse, oral, dose 0.01 mg/kg; MAP 1 mg/kg i.p.; total 60 minutes, P<0.05. As for the experimental part: as §1, §2, §3, §4, §5
Where [3] appears, read: dose 0.01 mg/kg, total 60 minutes, P<0.05.

What is called Ki is the dissociation constant of the complex between target and ligand, obtained from inhibition or displacement.

T1 sequence (P47898 whole entry): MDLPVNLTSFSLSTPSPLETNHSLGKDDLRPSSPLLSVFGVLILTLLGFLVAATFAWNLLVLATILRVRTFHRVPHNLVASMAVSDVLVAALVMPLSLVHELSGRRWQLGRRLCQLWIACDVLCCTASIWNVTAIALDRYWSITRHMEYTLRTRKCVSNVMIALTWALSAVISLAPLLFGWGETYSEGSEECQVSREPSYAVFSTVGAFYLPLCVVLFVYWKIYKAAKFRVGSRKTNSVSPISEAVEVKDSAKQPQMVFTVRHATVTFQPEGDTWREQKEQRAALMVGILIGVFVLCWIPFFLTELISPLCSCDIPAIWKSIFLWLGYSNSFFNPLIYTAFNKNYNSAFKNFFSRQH

At human 5-HT5A receptor, `Cc1cc(C(=O)N=C(N)N)cc2c1c1c(F)cccc1n2C1CCOCC1` [Example 138] registered an inhibition constant Ki of no more than 50 nM. Moreover, the “inhibition of MK-801-induced overactivity” value in test [1] (setting [3]) was “significantly inhibited”.

Consider `NC(N)=NC(=O)c1ccc2c3ccccc3n(Cc3ccccc3)c2c1` [Example 37], for which affinity on human 5-HT5A receptor was put at a Ki of 8.3 nM. Also, the “inhibition of MK-801-induced overactivity” value in test [1] (setting [3]) was “significantly inhibited”.

`N/C(=N\C(=O)c1ccc2c3ccccc3n(C3CCOCC3)c2c1)NCC1CC1` [Example 178] yielded a Ki at human 5-HT5A receptor of no more than 50 nM. The “inhibition of MK-801-induced overactivity” value in test [1] (setting [3]) was “significantly inhibited”.

On human 5-HT5A receptor, `NC(N)=NC(=O)c1cc(Cl)c2c3ccccc3n(C3CCOCC3)c2c1` [Example 150] had a Ki of no more than 50 nM. Also, in test [1] (dose 0.1 mg/kg), the “inhibition of MK-801-induced overactivity” value is recorded as “significantly inhibited”.

Turning to `NC(N)=NC(=O)c1ccc2c3c(F)cccc3n(C3CCOCC3)c2c1` [Example 86], the affinity on human 5-HT5A receptor, expressed as Ki, was 0.56 nM. For the same compound, the “inhibition of MK-801-induced overactivity” value in test [1] (setting [3]) was “significantly inhibited”. The “inhibition of scopolamine-induced spontaneous alternation behavior disorder” value in test [2] (oral, dose 0.0001 mg/kg) was “significantly inhibited”. Moreover, the “inhibition of MAP-induced overactivity” value with MAP-induced overactivity was “significantly inhibited”.

`NC(N)=NC(=O)c1cc(F)c2c3c(F)cccc3n(C3CCOCC3)c2c1` [Example 146] yielded a Ki at human 5-HT5A receptor of no more than 50 nM. The “inhibition of MK-801-induced overactivity” value in test [1] (setting [3]) is given as “significantly inhibited”.

For `CC(C)n1c2cc(C(=O)N=C(N)N)ccc2c2c(Cl)cccc21` [Example 59], on human 5-HT5A receptor, the Ki was no more than 50 nM. For the same compound, the “inhibition of scopolamine-induced spontaneous alternation behavior disorder” value in test [2] (oral, dose 0.03 mg/kg) is recorded as “significantly inhibited”.

In turn, `COc1cccc(CN/C(N)=N/C(=O)c2ccc3c4ccccc4n(C4CCOCC4)c3c2)c1` [Example 194] showed a Ki at human 5-HT5A receptor of no more than 50 nM. Moreover, the “inhibition of MK-801-induced overactivity” value in test [1] (dose 0.03 mg/kg) is reported as “significantly inhibited”.

`NC(N)=NC(=O)c1ccc2c3ccccc3n(C3CCC3)c2c1` [Example 22] yielded a Ki on human 5-HT5A receptor of no more than 50 nM. In addition, in test [1] (dose 0.1 mg/kg), the “inhibition of MK-801-induced overactivity” value is “significantly inhibited”.

On human 5-HT5A receptor, `Cl.Cl.NC(N)=NC(=O)c1ccc2c3ccccc3n(C3CCNCC3)c2c1` [Example 6, N-(diaminomethylene)-9-piperidin-4-yl-9H-carbazole-2-carboxamide dihydrochloride] showed a Ki of no more than 50 nM. Moreover, in test [1] (setting [3]), the “inhibition of MK-801-induced overactivity” value is listed as “significantly inhibited”. Moreover, the “inhibition of scopolamine-induced spontaneous alternation behavior disorder” value in test [2] (oral, dose 0.003 mg/kg) is “significantly inhibited”. For the same compound, the “inhibition of MAP-induced overactivity” value with MAP-induced overactivity is recorded as “significantly inhibited”.

Turning to `NC(N)=NC(=O)c1ccc2c3ccccc3n(C3CCCCC3)c2c1` [Example 24], the Ki at human 5-HT5A receptor is no more than 50 nM. Moreover, the “inhibition of MK-801-induced overactivity” value in test [1] (dose 0.1 mg/kg) is on record as “significantly inhibited”.

As for `Cc1cccc2c1c1ccc(C(=O)N=C(N)N)cc1n2C1CC=C(F)CC1` (centres unmarked) [Example 161], the Ki at human 5-HT5A receptor was no more than 50 nM. The “inhibition of MK-801-induced overactivity” value in test [1] (dose 0.1 mg/kg) is “significantly inhibited”.

`Cc1cc(C(=O)N=C(N)N)cc2c1c1ccccc1n2C1CCOCC1` [Example 106] gave an inhibition constant Ki at human 5-HT5A receptor of 0.27 nM. Further, the “inhibition of MK-801-induced overactivity” value in test [1] (dose 0.03 mg/kg) is recorded as “significantly inhibited”. Further, the “inhibition of scopolamine-induced spontaneous alternation behavior disorder” value in test [2] (oral, dose 0.0001 mg/kg) is given as “significantly inhibited”. The “inhibition of MAP-induced overactivity” value in the test on MAP-induced overactivity is given as “significantly inhibited”.

Consider `NC(N)=NC(=O)c1ccc2c3ccccc3n(C3CCC(F)(F)CC3)c2c1` [Example 129], for which the Ki on human 5-HT5A receptor was no more than 50 nM. The “inhibition of MK-801-induced overactivity” value in test [1] (dose 0.1 mg/kg) is recorded as “significantly inhibited”.

Compound `CC(=O)n1c2ccccc2c2ccc(C(=O)N=C(N)N)cc21` [Example 26] yielded a Ki at human 5-HT5A receptor of no more than 50 nM. Further, the “inhibition of scopolamine-induced spontaneous alternation behavior disorder” value in test [2] (oral, dose 0.03 mg/kg) is recorded as “significantly inhibited”.

On to `COc1cc2c(cc1OC)C(=O)C(CC1CCN(Cc3ccccc3)CC1)C2` (centres unmarked) [donepezil, reference compound], for which, in test [2] (dose 0.25 mg/kg), the “inhibition of scopolamine-induced spontaneous alternation behavior disorder” value is given as “significantly inhibited”.

`NC(N)=NC(=O)c1ccc2c3ccccc3n(Cc3cccs3)c2c1` [Example 135] came in with a Ki on human 5-HT5A receptor of no more than 50 nM. The “inhibition of MK-801-induced overactivity” value in test [1] (setting [3]) is recorded as “significantly inhibited”. Also, the “inhibition of scopolamine-induced spontaneous alternation behavior disorder” value in test [2] (oral, dose 0.003 mg/kg) was “significantly inhibited”. For the same compound, the “inhibition of MAP-induced overactivity” value in the test with MAP-induced overactivity is listed as “significantly inhibited”.
